# Results reported in article PMC2654408 (PLoS ONE, 2009).
# Where “and” joins values, the source holds several entries; their conditions need not be identical. Equal values may be shown once. Read-outs that look alike come from different tables or passages of the source. Where no end group is shown, it is not given here.
# B1: T-AChE: full-length tailed isoform of acetylcholinesterase (protein)
# chain: EGREDAELLVTVRGGRLRGIRLKTPGGPVSAFLGIPFAEPPMGPRRFLPPEPKQPWSGVVDATTFQSVCYQYVDTLYPGFEGTEMWNPNRELSEDCLYLNVWTPYPRPTSPTPVLVWIYGGGFYSGASSLDVYDGRFLVQAERTVLVSMNYRVGAFGFLALPGSREAPGNVGLLDQRLALQWVQENVAAFGGDPTSVTLFGESAGAASVGMHLLSPPSRGLFHRAVLQSGAPNGPWATVGMGEARRRATQLAHLVGCPPGGTGGNDTELVACLRTRPAQVLVNHEWHVLPQESVFRFSFVPVVDGDFLSDTPEALINAGDFHGLQVLVGVVKDEGSYFLVYGAPGFSKDNESLISRAEFLAGVRVGVPQVSDLAAEAVVLHYTDWLHPEDPARLREALSDVVGDHNVVCPVAQLAGRLAAQGARVYAYVFEHRASTLSWPLWMGVPHGYEIEFIFGIPLDPSRNYTAEEKIFAQRLMRYWANFARTGDPNEPRDPKAPQWPPYTAGAQQYVSLDLRPLEVRRGLRAQACAFWNRFLPKLLSATDTLDEAERQWKAEFHRWSSYMVHWKNQFDHYSKQDRCSDL
# B2: [125I]alpha-bungarotoxin (ligand)
# chain: IVCHTTATSPISAVTCPPGENLCYRKMWCDAFCSSRGKVVELGCAATCPSKKPYEEVTCCSTDKCNPHPKQRPG
# Columns and labels:
# [1] = target: T1, α7-nAChR (Homo sapiens, UniProt P36544); assay: biochemical; type: binding; conditions: for [125I]α-BTX binding compared with control maximum specific binding: Mean±SEM
# T1 construct: host or cells: GH4-hα7 (rat pituitary tumor GH4 cells stably transfected with human α7-nAChR)
# Description: (§1) For membrane binding experiments, confluent cells were scraped off 75 cm^2 culture plates into ice-cold lysis buffer (20 mM Tris-HCl, pH 7.0, 5 mM ethylenediaminetetraacetic acid (EDTA), and 1× protease inhibitor cocktail (Roche Diagnostics, Ltd.,West Sussex, UK). After pelleting by centrifugation for 10 min at 13,000 rpm, cells were resuspended in 7 ml ice-cold lysis buffer, lysed by Dounce homogenization, and then centrifuged at 1000×g for 10 min. Supernatant was removed and the extraction process repeated. The supernatants were combined and centrifuged at 50,000 rpm (70 Ti rotor) for 30 min (Beckman Ultracentrifuge). All centrifugations were carried out at 4°C. The pelleted membranes were resuspended in binding buffer (50 mM Tris-HCl, 120 mM NaCl, 5 mM KCl, 1 mM MgCl2, 2.5 mM CaCl2, pH 7.0) and protein concentration determined using the DC Protein Assay kit (Bio-Rad Laboratories, Ltd., Hemel Hempstead, UK). Binding assays were assembled on ice in borosilicate glass test tubes with 50–100 µg membrane protein in binding buffer in a final volume of 250 µl. Binding reactions were incubated at 4°C overnight, and then terminated by rapid vacuum filtration using a Brandel Cell Harvester onto Whatman GF/B glass fibre filters pre-soaked in 0.4% polyethylenimine. Saturation binding experiments were performed with [^125I]α-BTX concentrations ranging from 0.03–100 nM. Displacement binding experiments were performed with a constant [^125I]α-BTX concentration of 2.0 nM. Non-specific binding was determined with 10 µM MLA.
# (§2) Ligand binding data were analyzed using GraphPad Prism 4.03 (GraphPad Software, Inc.) Saturation binding data were fitted by nonlinear regression with a hyperbolic function for a one-binding site model. Displacement binding data were fitted by nonlinear regression for a one-site binding competition model, unless otherwise noted. RT-PCR band density data was analysed using Student's t-test for comparison of individual means with control values and by one-way ANOVA followed by Tukey's multiple comparison test for comparison of test groups and effect of MLA inhibition effects.
# [2] = system: α7-nAChR mRNA expression; assay: RT-PCR analysis of α7-nAChR mRNA expression in GH4-hα7 cells; type: cell-based, human
# Description: To assess the effects of T-AChE C-terminal peptides on α7-nAChR mRNA expression, total cellular RNA was isolated and analysed for gene-specific expression levels using reverse transcriptase PCR. Specifics of primer design and sequences used in RT-PCR experiments are described in the methods. […] Expression of the housekeeping gene glyceraldehyde 3-phosphate dehydrogenase (GAPDH) was used as a standard for comparative analysis. RT-PCR analysis was performed in control GH4-hα7 cells and those exposed to AChE peptides at concentrations ranging from 1 nM to 1 µM for 24 hr (Fig. 5A). […] A similar high level of α7-nAChR expression was achieved after treatment with only 1 nM T30.
# as §2, with “Displacement binding data were fitted by nonlinear regression for a one-site binding competition model, unless otherwise noted.” left out
# Primers for RNA analysis were designed using the Primer3 program and analysed for structural anomalies and dimer formation using NetPrimer software (Premier Biosoft International, Palo Alto, USA). […]
# [3] = target: human alpha-7 nicotinic acetylcholine receptor (human) (UniProt P36544)
# [4] = target: human alpha-7 nicotinic acetylcholine receptor (human) (UniProt P36544); assay: radioligand binding
# [5] = target: T1, α7-nAChR; assay: Saturation binding on cell membranes after chronic 24 hr peptide treatment of GH4-hα7 cells; type: cell-based; conditions: 24 hr treatment with 100 nM peptide; read-out: Kd±SEM, receptor affinity for α-BTX
# Description: as §1
# as §2, with “Displacement binding data were fitted by nonlinear regression for a one-site binding competition model, unless otherwise noted.” left out
# [6] = target: T1, α7-nAChR; assay: Acute live cell [125I]α-BTX binding in GH4-hα7 cells; conditions: for efficacy in competition with [125I]α-BTX for receptor binding sites: 10 µM peptide
# Description: Initial experiments were performed to characterize the binding parameters of the human α7-nAChR heterologously expressed in the rat GH4-hα7 cell line using a live-cell binding method. Saturation binding was carried out with [^125I]alpha-bungarotoxin ([^125I]α-BTX) concentrations ranging from 0.03 nM to 100 nM. Non-specific binding was determined in the presence of 10 µM methyllycaconitine (MLA).
# For live cell binding experiments, cells were seeded into 6-well plates at a density of 1×10^5 cells/well and allowed to recover for 24–48 hours before experimentation. Cells were treated with indicated peptides or α7-nAChR ligands for 30 min at 37°C in cell medium containing 1% FBS. Then [^125I]α-bungarotoxin ([^125I]α-BTX; 150 Ci/mmol) was added and cells were incubated at 37°C for a further 1.5 hr. Cell layers were washed 3× with 2 ml serum-free DMEM, then 0.5 ml 1 M NaOH was added to each well to lyse cells. Cell lysates were transferred to 5 ml scintillation fluid and radioactivity was determined using a Beckman LS6000IC scintillation counter.
# as §2
# [7] = target: T2, human alpha-7 nicotinic acetylcholine receptor (human, UniProt P36544 23-502); assay: radioligand binding; conditions: one partner purified
# T2 construct: human alpha-7 nicotinic acetylcholine receptor, heterologously expressed in the rat GH4-hα7 cell line; Used on live cells and as purified membranes of the same cell line; also called α7-nAChR; CHRNA7; source: on live cells and in purified cell membranes
# [8] = target: T2, human alpha-7 nicotinic acetylcholine …; assay: radioligand binding; conditions: one partner purified; remark: listed apart in the source
# [9] = live cells, [125I]α-BTX displacement, read-out: Ki, high affinity site
# Chain of human alpha-7 nicotinic acetylcholine receptor (human) (P36544 23-502): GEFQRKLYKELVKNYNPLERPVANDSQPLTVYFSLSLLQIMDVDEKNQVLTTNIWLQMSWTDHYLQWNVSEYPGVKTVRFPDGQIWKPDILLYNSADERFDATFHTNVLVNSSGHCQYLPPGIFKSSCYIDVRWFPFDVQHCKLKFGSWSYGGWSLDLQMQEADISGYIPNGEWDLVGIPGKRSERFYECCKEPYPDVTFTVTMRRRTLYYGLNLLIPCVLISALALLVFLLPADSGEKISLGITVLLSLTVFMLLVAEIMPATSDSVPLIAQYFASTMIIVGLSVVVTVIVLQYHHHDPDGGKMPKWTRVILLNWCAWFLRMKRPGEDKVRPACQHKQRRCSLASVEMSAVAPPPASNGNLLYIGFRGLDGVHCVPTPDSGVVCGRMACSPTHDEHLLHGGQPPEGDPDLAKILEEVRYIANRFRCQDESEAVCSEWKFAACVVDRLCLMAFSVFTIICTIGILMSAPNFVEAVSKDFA
# T1 sequence (P36544 23-502): as above
# T2 sequence (P36544 23-502): as above
molecule,measurement,setting,value
"CC(=O)OCC[N+](C)(C)C [ACh, acetylcholine]",decrease in specific binding efficacy in the presence of T30 compared with ligand alone,"[1]; membranes, ligand at its EC50, varying concentrations of T30",18%
"C[N+](C)(C)CCO [Choline, choline]",decrease in specific binding efficacy in the presence of T30 compared with ligand alone,[1],36%
same,IC50,[1]; IC50±SEM,123000 nM and 126000 nM and 225000 nM and 357000 nM and 737000 nM
same,Ki,[1]; Ki±SEM,85900 nM and 88900 nM and 157000 nM and 250000 nM and 515000 nM
"CCN1C[C@]2(COC(=O)c3ccccc3N3C(=O)C[C@H](C)C3=O)CC[C@H](OC)[C@@]34[C@@H]5C[C@H]6[C@H](OC)[C@@H]5[C@](O)(C[C@@H]6OC)[C@@](O)([C@@H](OC)[C@H]23)[C@@H]14 [MLA, methyllycaconitine]",decrease in specific binding efficacy in the presence of T30 compared with ligand alone,[1],24%
same,IC50,[1]; IC50,15.5 nM and 9.5 nM
same,"α7-nAChR mRNA expression, relative band density",[2],1.58±0.12
AChE C-terminal peptide T14,α7-nAChR mRNA expression by RT-PCR (relative band density against GAPDH) in GH4-hα7 cells after 24 hr with 1 nM to 1 µM T14 (relative band density),[3],2.72
AChE C-terminal peptide T30,α7-nAChR mRNA expression by RT-PCR (relative band density against GAPDH) in GH4-hα7 cells after 24 hr with 1 nM to 1 µM T30 (relative band density),[3],2.98
same,"Ki, high affinity site",[4],0.0168 nM
same,"Ki, second, lower affinity site",[4],47.1 nM
AEFHRWSSYMVHWK [T14],Kd,[5],9.06 ± 0.93 nM
same,[125I]α-BTX binding compared with control maximum specific binding,"[1]; membranes, 1 µM peptide",90.11±3.5%
same,[125I]α-BTX binding compared with control maximum specific binding,"[1]; membranes, 10 µM peptide",87.91±1.9%
same,efficacy in competition with [125I]α-BTX for receptor binding sites,[6]; live cells,approximately 40%
same,Ki,[6]; [9],0.653 ± 0.0126 nM
KAEFHRWSSYMVHWKNQFDHYSKQERCSDL [T30],Kd,[5],12 ± 1.39 nM
same,[125I]α-BTX binding compared with control maximum specific binding,"[1]; membranes, 1 µM peptide",110.9±3.6%
same,[125I]α-BTX binding compared with control maximum specific binding,"[1]; membranes, 10 µM peptide",117.3±4.9%
same,efficacy in competition with [125I]α-BTX for receptor binding sites,[6]; live cells,70%
same,Ki,[6]; [9],0.0168 ± 0.0018 nM
same,Ki,"[6]; live cells, two-site competition model, read-out: Ki, second lower affinity site",47.1 ± 2.8 nM
NQFDHYSKQERCSDL [T15],Kd,[5],4.91 ± 0.53 nM
[^125I]alpha-bungarotoxin [[^125I]α-BTX],Bmax,[6],965.8±28.9 fmol/mg protein
same,Kd,[6],4.68 ± 0.61 nM
B1,effect on [125I]α-BTX binding to the α7-nAChR,"[6]; live cells, controls (Fig. 2D)","neither full-length T-AChE, nor truncated T548, had an effect"
same,change in α7-nAChR mRNA expression,"[2]; 10 nM protein, 24 hr","neither the full length T-AChE molecule (p = 0.3419), nor the truncated T548 (p = 0.1778), effected a significant change"
B2,Kd,[7],4.66 nM and 9.06 nM and 12 nM and 4.91 nM
same,Kd,[8],4.68 nM
